Assay results reported in US8404665B2, “In vivo use of glutathione S-transferase activated nitric oxide donors” (University of Utah Research Foundation, priority 2002, dated 2013).

Tests used:
[1] = test system: PPC-1 cells; test: Subcutaneous PPC-1 tumor implants in NOD/SCID mice; format: in vivo
Experimental: To study the in vivo antineoplastic potency of JS-K, NOD/SCID mice were injected in the flanks subcutaneously with HL-60 or PPC-1 cells (2.5×10^6 cells per flank). When subcutaneous tumors were palpable, treatment with JS-K or an equal volume of vehicle (20% dimethyl sulfoxide in PBS) was started using the indicated doses and route. Tumor size was measured daily or every other day using a Vernier caliper. Tumor volume was calculated using the formula: width×length×[(width+length)/2]×0.5236. Fifteen to 20 days after tumor cell implantation, animals were sacrificed by CO2 inhalation and tumors were collected for histochemical analysis.
Histological Analysis of Tumors. After sacrifice, subcutaneous tumors were dissected out, fixed in 10% formaldehyde and imbedded in paraffin. Four-um sections were cut and stained with Hematoxylin and Eosin.
To determine if JS-K is cytotoxic to solid tumors, the effect of JS-K on the in vitro and in vivo growth of the prostate cancer cell line PPC-1 was studied. Similar to studies in HL-60 cells, indications are that JS-K appears to be a potent growth inhibitor for prostate cancer cells in vitro and in vivo. For the in vitro experiments, JS-K was added to PPC-1 cells at 1, 2, 3, 4, and 5 μM concentrations. […] For the in vivo experiments, NOD/SCID mice were inoculated subcutaneously with […] PPC-1 cells, as described above. When the subcutaneous tumors were measurable, JS-K was administered intravenously at a dose of 4 μmol/kg or an equal volume of vehicle 3 times per week.
In order to determine whether JS-K inhibits the in vivo growth of solid tumor cells, NOD/SCID mice were implanted with 2.5×10^6 PPC-1 (prostate carcinoma) cells and treated with 4 μmol/kg JS-K or an equal volume of vehicle intravenously 3 times a week. Similar to the observation with HL-60 cells, JS-K treatment appeared to inhibit the growth of PPC-1 cells in vivo. Nineteen days after start of therapy, subcutaneous tumor implant volumes were 0.368±0.082 and 0.107±0.053 cm^3 (P=0.0073) in vehicle and JS-K-treated animals, respectively. […]

[2] = test system: HL-60 cells; test: NO generation (nitrate and nitrite) by HL-60 cells in serum-free PBS; format: cell-based, human
Experimental: Production of NO was then determined by measuring levels of nitrate and nitrite, byproducts of NO oxidation. Serum-free buffer was used to eliminate the confounding effects of nitrates in the serum or medium. When added to HL-60 cells suspended in serum-free phosphate buffered saline (PBS) buffer at a concentration of 10 μM, JS-K appeared to generate NO in a time-dependent fashion with peak levels at 24 hours. […] For this, JS-K was added to HL-60 cells suspended in serum-free PBS at a concentration of 20 μM and nitrate+nitrite levels in the supernatants were determined 24 hours post-addition.

[3] = test system: rabbit thoracic aorta; test: Rabbit aortic rings bioassay of NO activity (vasorelaxation)
Excerpt: Preparation of Rabbit Aortic Rings for Bioassay of NO Activity. The preparation of rabbit aortic rings was similar to that described previously (Jia L and Furchgott R F (1993) J Pharmnacol Exp Ther 267: 371-378.), and the animal protocol was approved by the Institutional Animal Care and Use Committee. Briefly, a male New Zealand rabbit was anesthetized by an intravenous injection of sodium pentobarbital into a marginal ear vein. The descending thoracic aorta was quickly removed. The aortic rings (2 mm in length) were prepared and mounted in 20 ml of Krebs' solution (bubbled with 95% O2/5% CO2, 37° C.) in organ chambers. […] Rings were allowed to equilibrate for at least 90 min before experiments were initiated. Basal tension was maintained at approximately 3 g. To allow studies on relaxation, each ring was precontracted submaximally by addition of 50-100 nM phenylephine to the bathing solution. When the contraction had reached a steady state, JS-K was added successively to the bathing solution until the maximal relaxation was obtained. Hb and ODQ were also added to the bathing solution to investigate the mechanisms of action of JS-K.
The ability of JS-K to function as a NO donor was examined in the rabbit thoracic aorta model. […]

[4] = test system: PPC-1 cells; test: PPC-1 prostate cancer cell growth in vitro; format: cell-based
Experimental: Cell Lines and Culture Conditions. HL-60, DLD1, and U937 cells were obtained from ATCC (Rockville, Md.). Meth A cells were from Dr. Wolfram Samlowski (University of Utah, Salt Lake City, Utah). The PPC-1 cell line was provided by Dr. Graeme Bolger (University of Alabama, Birmingham, Ala.). For the cell growth and apoptosis experiments, cells were cultured at a density of 150,000 cells/ml in RPMI-1640 with 10% fetal bovine serum at 37° C. in a 5% CO2 humidified atmosphere. Agents were added at the indicated concentrations 24 h after culture initiation. At the indicated time intervals, cells were harvested and washed twice in phosphate buffered saline (PBS) prior to processing for analysis of growth, differentiation, and apoptosis.
Cell Growth, Differentiation and Apoptosis Assays. The number of viable cells was determined using the MTT assay according to the manufacturer's protocol (Promega, Madison, Wis.) or using a Coulter counter. […] The assay is useful in calorimetric quantitation of cell viability and proliferation. In contrast, cell differentiation was evaluated using Wright and Non-Specific Esterase (NSE) staining of cells collected on microscope slides by cytospin as previously described (Magrinat, G. et al. (1992) Blood 80: 1880-1884). […]

[5] = 4 μmol/kg i.v. 3 times per week

CCOC(=O)N1CCN(/[N+]([O-])=N/Oc2ccc([N+](=O)[O-])cc2[N+](=O)[O-])CC1 [JS-K, O^2-(2,4-dinitrophenyl) 1-[(4-ethoxycarbonyl)piperazin-1-yl]diazen-1-ium-1,2-diolate]
prostate cancer growth in vivo [1, 5]: significant delay in prostate cancer growth in vivo
tumor histology (necrosis) [1, 5]: high degree of extensive tumor necrosis
subcutaneous tumor implant volume ([1]; nineteen days after start of therapy, vehicle 0.368±0.082, P=0.0073): 0.107±0.053 cm^3
time of peak NO levels (nitrate and nitrite) ([2]; 10 μM, HL-60 cells in serum-free PBS): 24 h
extent of NO release versus cell number ([2]; 20 μM, nitrate+nitrite in supernatants 24 hours post-addition): positively correlated with the cell number
activation of JS-K and NO release by supernatants from HL-60 cells ([2]; cell supernatants only): did not induce activation of JS-K and NO release
reversibility of vasoactivity ([3]; Hb and ODQ added): reversible in the presence of a NO scavenger and a specific inhibitor of the NO-sGC-cGMP pathway
concentration at which vasorelaxation reached a maximum ([3]; rings precontracted with phenylephine): 100 nM
cell growth inhibition ([4]; 1, 2, 3, 4 and 5 μM, 3 days): potent inhibitor of prostate cancer growth
IC50 relative to leukemia lines ([4]; PPC-1): an order of magnitude greater than those for the two leukemia lines
